The target in assay [1] is T1, Somatostatin receptor type 4 (Homo sapiens, UniProt P31391). Description: Binding affinity to human sst4 receptor.
Assay [2] addresses T2, Somatostatin receptor type 2 (Homo sapiens, UniProt P30874). Description: Binding affinity to human sst2 receptor.
For assay [3], the target named is T2, Somatostatin receptor type 2. The assay can be described thus: Displacement of [125I]tyr11-SRIF from human sst2 receptor after 60 mins by liquid scintillation counting method.
For assay [4], the target named is T1, Somatostatin receptor type 4. Description: Displacement of [125I]tyr11-SRIF from human sst4 receptor after 60 mins by liquid scintillation counting method. (In general: Loss of bound radioactivity is the signal in a displacement assay; it reports binding, not function.)
Assay [5] shares this target. The assay can be described thus: Displacement of [125I]-SRIF14 from human sst4 receptor.

SMILES strings stand for the structures.

T1 sequence (P31391 whole entry): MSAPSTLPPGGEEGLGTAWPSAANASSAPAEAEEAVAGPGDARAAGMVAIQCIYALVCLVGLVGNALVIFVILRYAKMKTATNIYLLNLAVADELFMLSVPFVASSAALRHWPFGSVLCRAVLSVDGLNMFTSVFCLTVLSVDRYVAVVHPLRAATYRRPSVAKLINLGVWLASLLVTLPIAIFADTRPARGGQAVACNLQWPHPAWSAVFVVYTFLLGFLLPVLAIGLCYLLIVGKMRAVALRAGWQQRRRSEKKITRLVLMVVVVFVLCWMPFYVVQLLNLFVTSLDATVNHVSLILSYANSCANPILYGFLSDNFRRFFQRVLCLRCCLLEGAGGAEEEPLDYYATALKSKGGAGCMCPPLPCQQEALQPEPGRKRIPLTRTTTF
T2 sequence (P30874 whole entry): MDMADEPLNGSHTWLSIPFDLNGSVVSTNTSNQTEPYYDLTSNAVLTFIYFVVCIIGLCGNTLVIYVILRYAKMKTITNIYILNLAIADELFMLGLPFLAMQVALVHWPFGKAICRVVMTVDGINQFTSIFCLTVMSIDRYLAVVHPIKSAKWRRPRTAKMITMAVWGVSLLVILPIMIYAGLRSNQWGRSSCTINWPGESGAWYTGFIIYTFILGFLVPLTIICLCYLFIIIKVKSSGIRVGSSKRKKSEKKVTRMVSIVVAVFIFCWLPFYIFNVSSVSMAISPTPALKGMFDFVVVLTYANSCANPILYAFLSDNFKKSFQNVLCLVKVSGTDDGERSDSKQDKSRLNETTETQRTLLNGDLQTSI

What is called Ki is the equilibrium dissociation constant of an inhibitor or competing ligand from its target. Low readings indicate higher affinity, high ones lower affinity. For the molecule `NCCCCCOc1ccccc1OCCc1c[nH]c2ccccc12`, the Ki in assay [1] is 2020 nM; in assay [2], 4690 nM.
For the molecule `NCCCc1cc(Cl)cc2c1OC(CCc1cccc3ccccc13)CC2=O` (racemic), the figures for the inhibitory constant (Ki) in assay [3] and in assay [4] were 6850 nM and 7090 nM, respectively.
On the same counts, the results for `NCCCc1cc(Cl)cc2c(=O)cc(CCc3cccc4ccccc34)oc12` are 2660 nM and 1170 nM.
The molecule `CC(C)CC[C@]1(Cc2ccccc2)NC=C([C@@]2(Cc3ccccc3)NC=C([C@]3(CCCN)NC=C([C@@]4(CC(C)C)NC=C(Cc5ccccc5)C4=O)C3=O)C2=O)C1=O` gave a Ki in assay [5] of 2050 nM. This counts as single-digit micromolar.

For the origin of these results see ChEMBL document CHEMBL3779780, “Chroman-4-one and chromone based somatostatin β-turn mimetics” (Eur J Med Chem, 2016).
